Measurements reported in patent US20040019024A1, “Use of vitamin d derivatives as bone resorption inhibitors” (priority 2000, published 2004).
Marks after values point to notes of the source that are not given here.

Tests used:
[1] = tested on: bone marrow cells of normal persons; assay: Osteoclast formation induced by 1α,25-dihydroxyvitamin D3 in normal human bone marrow cultures; assay type: cell-based; details: for osteoclast formation (average number of cells ± S.D.): normal marrow
From the text: Mononuclear cells were fractionated from bone marrow cells of healthy normal persons according to a method of Kurihara et al. (Endocrinology, vol. 126, 2733-2741 (1990)). Briefly, bone marrow cells were obtained from normal persons, a mononuclear cell fraction was collected by Hypaque-Ficoll density gradient centrifugation, the cell fraction was washed with α-Minimal Essential Media (α-MEM) 3 times, and the cells dispersed in α-MEM containing 10% fetal bovine serum. This mononuclear cell suspension was seeded in 100-mm tissue culture plates, the culture plate was kept for 90 minutes at 37° C. in a 4% CO2-air atmosphere, and the non-adherent cells were collected. The non-adherent mononuclear cells were dispersed into α-MEM culture medium containing 20% horse serum at 10^6 cells/ml, the cell suspension was seeded into 96-well multi plates at 100 μl/well. The capacity of the compound 11 (23S isomer) to inhibit osteoclast formation induced by 1α,25-dihydroxyvitamin D3 was evaluated as follows: Various concentrations of 1α,25-dihydroxyvitamin D3, various concentrations of compound 11 (23S isomer) or a combination of 10^−8 M 1α,25-dihydroxyvitamin D3 solution and various concentrations of compound 11 (23S isomer) solution were added to each well. The culture medium was replaced twice weekly and the cultures continued for 3 weeks at 37° C. in an atmosphere of 4% CO2-air. Osteoclasts that formed were identified by their capacity to bind the 23C6 antibody. The nuclei were counter stained with methyl green. Cells that reacted with the 23C6 antibody and had 3 or more nuclei were scored as osteoclasts.

[2] = tested on: bone marrow cells of Paget's disease of bone patients; assay: Osteoclast formation induced by 1α,25-dihydroxyvitamin D3 in bone marrow cultures from Paget's disease of bone patients; assay type: cell-based, human; details: for osteoclast formation (average number of cells ± S.D.): Paget's marrow
From the text: Mononuclear cells were fractionated from bone marrow cells of healthy normal persons according to a method of Kurihara et al. (Endocrinology, vol. 126, 2733-2741 (1990)). Briefly, bone marrow cells were obtained from normal persons, a mononuclear cell fraction was collected by Hypaque-Ficoll density gradient centrifugation, the cell fraction was washed with α-Minimal Essential Media (α-MEM) 3 times, and the cells dispersed in α-MEM containing 10% fetal bovine serum. This mononuclear cell suspension was seeded in 100-mm tissue culture plates, the culture plate was kept for 90 minutes at 37° C. in a 4% CO2-air atmosphere, and the non-adherent cells were collected. The non-adherent mononuclear cells were dispersed into α-MEM culture medium containing 20% horse serum at 10^6 cells/ml, the cell suspension was seeded into 96-well multi plates at 100 μl/well.
The capacity of the compound 11 (23S isomer) to inhibit osteoclast formation induced by 1α,25-dihydroxyvitamin D3 was evaluated as follows: Various concentrations of 1α,25-dihydroxyvitamin D3, various concentrations of compound 11 ([…]) solution were added to each well. The culture medium was replaced twice weekly and the cultures continued for 3 weeks at 37° C. in an atmosphere of 4% CO2-air. Osteoclasts that formed were identified by their capacity to bind the 23C6 antibody. The nuclei were counter stained with methyl green. Cells that reacted with the 23C6 antibody and had 3 or more nuclei were scored as osteoclasts.
Bone marrow cells were obtained from involved bones of patients with Paget's disease of bone and processed and cultured as described above for normal bone cells. The cultures were treated in an identical manner with 1α,25-dihydroxyvitamin D3 and/or compound 11 (23S isomer) as described in Example 1.
Bone marrow cultures were performed as described in Example 1, with the exception that different types of vitamin D antagonists were added to at varying concentrations to bone marrow cultures stimulated with 1α,25-dihydroxyvitamin D3. The bone marrow cells were taken from involved bones of patients with Paget's disease of bone and the cultures were performed as described in Example 2. There are two diastereoisomers, based on the asymmetric carbon at the 23 position, in compounds 13 and 16. The isomer having the shorter retention time on reverse phase HPLC analysis was the more polar isomer and the isomer having the longer retention time was the less polar isomer.

[3] = tested on: vitamin D deficient rats; assay: Bone resorption (serum calcium) induced by 1α,25-dihydroxyvitamin D3 in vitamin D deficient rats; assay type: in vivo, Wistar rats
Description: Four-week-old male Wistar rats purchased from Japan SLC (Shizuoka, in Japan) were used. The animals were kept in wire-net cages (three animals in a cage) and raised for 7 weeks with free access to a vitamin D-deficient diet (Ca, 0.0036%; P, 0.3%; Harlan Taklad Research Diet, Madison, Wis., U.S.A.) and drinking water (well water treated with hypochlorite of […]±0.2 ppm). Temperature was kept at 23±1° C. and the humidity at 55±10%. Five animals were used for each experimental group. The control animals received intravenously administered solvent (5% ethanol-0.1% Triton X-100-physiological saline solution), and the experimental animals were intravenously administered 1α,25-dihydroxyvitamin D3 at a dose of 0.25 μg/kg. For animals receiving vitamin D derivatives, compound 11 (23S isomer) was administered intravenously at a dose of 2 μg/kg, 10 μg/kg or 50 μg/kg, or the compound 11 (23S isomer) with or without 1α,25-dihydroxyvitamin D3 at a dose of 0.25 μg/kg. The volume was 2 ml/kg for each animal. 24 hours after administration, a blood sample was taken out from abdominal descending aorta under ether anesthesia, the serum was collected according to conventional methods, and the calcium concentration in the serum was measured. The calcium concentrations were measured according to OCPC-method (Am. J. Clin. Pathol., vol. 45, 290-296 (1966)) with an autoanalyzer (type 7070, manufactured by Hitachi Seisakusho).

`C=C1CC(CC(C)C2CCC3C(=CC=C4CC(O)CC(O)C4=C)CCCC32C)OC1=O` [compound 11 (23S isomer), (23S)-25-Dehydro-1α,25-Dihydroxyvitamin D3-26, 23-Lactone] was tested, and the “osteoclast formation (average number of cells ± S.D.)” value ([1]; 10^−8 M 1α,25-dihydroxyvitamin D3 + compound 10^−6 M) was 20 ± 7 cells, the “osteoclast formation (average number of cells ± S.D.)” value ([1]; 10^−8 M 1α,25-dihydroxyvitamin D3 + compound 10^−7 M) was 33 ± 16 cells and the “osteoclast formation (average number of cells ± S.D.)” value ([1]; 10^−8 M 1α,25-dihydroxyvitamin D3 + compound 10^−8 M) was 44 ± 8 cells. For the same compound, the “osteoclast formation (average number of cells ± S.D.)” value ([1]; 10^−8 M 1α,25-dihydroxyvitamin D3 + compound 10^−9 M) was 55 ± 12 cells, the “osteoclast formation (average number of cells ± S.D.)” value ([1]; 10^−8 M 1α,25-dihydroxyvitamin D3 + compound 10^−10 M) was 80 ± 5 cells and the “osteoclast formation (average number of cells ± S.D.)” value ([1]; 10^−8 M 1α,25-dihydroxyvitamin D3 + compound 10^−11 M) was 85 ± 8 cells. For the same compound, the “osteoclast formation (average number of cells ± S.D.)” value ([1]; compound alone, 10^−6 M, 3 weeks) was 0 ± 0 cells, the “osteoclast formation (average number of cells ± S.D.)” value ([1]; compound alone, 10^−7 M, 3 weeks) was 0 ± 1 cells and the “osteoclast formation (average number of cells ± S.D.)” value ([1]; compound alone, 10^−8 M, 3 weeks) was 3 ± 2 cells. The “osteoclast formation (average number of cells ± S.D.)” value ([1]; compound alone, 10^−9 M, 3 weeks) was 5 ± 1 cells, the “osteoclast formation (average number of cells ± S.D.)” value ([1]; compound alone, 10^−10 M, 3 weeks) was 9 ± 5 cells and the “osteoclast formation (average number of cells ± S.D.)” value ([1]; compound alone, 10^−11 M, 3 weeks) was 17 ± 4 cells. The “induction of osteoclast formation by the compound alone (in words)” value ([1]; normal marrow cultures) was “did not induce osteoclast formation”, the “osteoclast formation (average number of cells ± S.D.)” value ([2]; 10^−10 M 1α,25-dihydroxyvitamin D3 + compound 10^−6 M) was 1 ± 1 cells and the “osteoclast formation (average number of cells ± S.D.)” value ([2]; 10^−10 M 1α,25-dihydroxyvitamin D3 + compound 10^−7 M, listed as compound 11 (235 isomer)) was 14 ± 1 cells. For the same compound, the “osteoclast formation (average number of cells ± S.D.)” value ([2]; 10^−10 M 1α,25-dihydroxyvitamin D3 + compound 10^−8 M, listed as compound 11 (235 isomer)) was 63 ± 5 cells, the “osteoclast formation (average number of cells ± S.D.)” value ([2]; 10^−10 M 1α,25-dihydroxyvitamin D3 + compound 10^−9 M) was 125 ± 5 cells and the “osteoclast formation (average number of cells ± S.D.)” value ([2]; 10^−10 M 1α,25-dihydroxyvitamin D3 + compound 10^−10 M) was 155 ± 6 cells. The “osteoclast formation (average number of cells ± S.D.)” value ([2]; 10^−10 M 1α,25-dihydroxyvitamin D3 + compound 10^−11 M) was 170 ± 13 cells, the “induction of osteoclast formation by the compound alone (in words)” value ([2]; Paget's marrow cultures) was “did not induce osteoclast formation” and the “osteoclast formation (average number of cells ± S.D.)” value ([2]; compound alone, 10^−6 M) was 1 ± 1 cells. The “osteoclast formation (average number of cells ± S.D.)” value ([2]; compound alone, 10^−7 M) was 8 ± 2 cells, the “osteoclast formation (average number of cells ± S.D.)” value ([2]; compound alone, 10^−8 M) was 9 ± 3 cells and the “osteoclast formation (average number of cells ± S.D.)” value ([2]; compound alone, 10^−9 M) was 16 ± 2 cells. For the same compound, the “osteoclast formation (average number of cells ± S.D.)” value ([2]; compound alone, 10^−10 M) was 20 ± 4 cells, the “osteoclast formation (average number of cells ± S.D.)” value ([2]; compound alone, 10^−11 M) was 29 ± 5 cells and the “effect on basal osteoclast formation (in words)” value ([2]; compound alone, Paget's marrow cultures) was “inhibited basal osteoclast formation”. For the same compound, the “serum Ca concentration” value ([3]; 0.25 μg/kg 1α,25-dihydroxyvitamin D3 + compound 2 μg/kg intravenously, 24 hours) was 5.31 ± 0.22 mg/100 ml serum, the “serum Ca concentration” value ([3]; 0.25 μg/kg 1α,25-dihydroxyvitamin D3 + compound 10 μg/kg intravenously, 24 hours) was 4.97 ± 0.18^a mg/100 ml serum and the “serum Ca concentration” value ([3]; 0.25 μg/kg 1α,25-dihydroxyvitamin D3 + compound 50 μg/kg intravenously, 24 hours) was 4.72 ± 0.21^b mg/100 ml serum. For the same compound, the “bone resorption induced by 1α,25-dihydroxyvitamin D3 (in words)” value ([3]; 0.25 μg/kg 1α,25-dihydroxyvitamin D3 simultaneously with 2, 10 or 50 μg/kg compound) was “suppressed”, the “serum Ca concentration” value ([3]; compound alone, 2 μg/kg intravenously, 24 hours after administration) was 4.61 ± 0.12 mg/100 ml serum and the “serum Ca concentration” value ([3]; compound alone, 10 μg/kg intravenously, 24 hours after administration) was 4.67 ± 0.11 mg/100 ml serum. The “serum Ca concentration” value ([3]; compound alone, 50 μg/kg intravenously, 24 hours after administration) was 4.65 ± 0.18 mg/100 ml serum and the “serum calcium concentration after compound alone (in words)” value ([3]; even at a dose of 50 μg/kg, 24 hours after administration) was “increased serum calcium concentrations were not observed”.
